Reference: ChEMBL document CHEMBL3885861, “Open TG-GATES”

Organism: Rattus norvegicus
Experiment: Open TG-GATES - Regimen: Single
Format: toxicity, organism-based, Sprague-Dawley
Design: regimen Single, gender Male, age 6 weeks
Details: in vivo, po, 10 mg/kg, route gavage, dose level Middle; for APTT / Bas / Eos / Fbg / Hb / Ht / Lym / MCH / MCHC / MCV / Mono / Neu / PT / Plat / RBC / Ret / WBC: tissue Blood; for KIDNEY_L / KIDNEY_R / KIDNEY_TOTAL: tissue Kidney; for LIVER: tissue Liver; for A/G / ALP / ALT / AST / BUN / CRE / Ca / Cl / DBIL / GLC / IP / K / LDH / Na / PL / RALB / TBIL / TC / TG / TP / gamma-GTP: tissue Plasma

Compound: Cn1cnc([N+](=O)[O-])c1Sc1ncnc2nc[nH]c12 [AZATHIOPRINE]
- TERMINAL_BW (3 h): 192.8 g
- APTT (3 h): 22.9 s
- Bas (3 h): 0%
- Eos (3 h): 0.8%
- Fbg (3 h): 277.6 mg/dL
- Hb (3 h): 13.1 g/dL
- Ht (3 h): 39.1%
- Lym (3 h): 77.8%
- MCH (3 h): 21.6 pg
- MCHC (3 h): 33.7%
- MCV (3 h): 64.2 fL
- Mono (3 h): 2.2%
- Neu (3 h): 18%
- PT (3 h): 15.7 s
- Plat (3 h): 117.8 x10_4/uL
- RBC (3 h): 609.8 x10_4/ul
- Ret (3 h): 9.7%
- WBC (3 h): 65 x10_2/uL
- KIDNEY_L (3 h): 0.9 g
- KIDNEY_R (3 h): 0.9 g
- KIDNEY_TOTAL (3 h): 1.7 g
- LIVER (3 h): 8.5 g
- A/G (3 h): 1.1
- ALP (3 h): 1723.6 IU/L
- ALT (3 h): 47.6 IU/L
- AST (3 h): 78 IU/L
- BUN (3 h): 11.4 mg/dL
- CRE (3 h): 0.2 mg/dL
- Ca (3 h): 10.6 mg/dL
- Cl (3 h): 105.6 meq/L
- DBIL (3 h): 0.006 mg/dL
- GLC (3 h): 189.4 mg/dL
- IP (3 h): 9.1 mg/dL
- K (3 h): 4.1 meq/L
- LDH (3 h): 211.4 IU/L
- Na (3 h): 141.8 meq/L
- PL (3 h): 133.2 mg/dL
- RALB (3 h): 2.9 g/dL
- TBIL (3 h): 0.008 mg/dL
- TC (3 h): 77 mg/dL
- TG (3 h): 57.6 mg/dL
- TP (3 h): 5.5 g/dL
- gamma-GTP (3 h): 1 IU/L
- TERMINAL_BW (6 h): 189.2 g
- APTT (6 h): 21.4 s
- Bas (6 h): 0%
- Eos (6 h): 1%
- Fbg (6 h): 308.4 mg/dL
- Hb (6 h): 12.8 g/dL
- Ht (6 h): 39%
- Lym (6 h): 72%
- MCH (6 h): 21.4 pg
- MCHC (6 h): 32.9%
- MCV (6 h): 65.2 fL
- Mono (6 h): 2.8%
- Neu (6 h): 22.8%
- PT (6 h): 15.6 s
- Plat (6 h): 124.6 x10_4/uL
- RBC (6 h): 598.6 x10_4/ul
- Ret (6 h): 9.2%
- WBC (6 h): 73.6 x10_2/uL
- KIDNEY_L (6 h): 0.9 g
- KIDNEY_R (6 h): 0.9 g
- KIDNEY_TOTAL (6 h): 1.8 g
- LIVER (6 h): 8.1 g
- A/G (6 h): 1.2
- ALP (6 h): 1521.2 IU/L
- ALT (6 h): 41.8 IU/L
- AST (6 h): 70.6 IU/L
- BUN (6 h): 8.8 mg/dL
- CRE (6 h): 0.1 mg/dL
- Ca (6 h): 10.5 mg/dL
- Cl (6 h): 107.2 meq/L
- DBIL (6 h): 0.004 mg/dL
- GLC (6 h): 175.4 mg/dL
- IP (6 h): 9.1 mg/dL
- K (6 h): 4.6 meq/L
- LDH (6 h): 249.2 IU/L
- Na (6 h): 140.8 meq/L
- PL (6 h): 120.6 mg/dL
- RALB (6 h): 2.9 g/dL
- TBIL (6 h): 0.01 mg/dL
- TC (6 h): 72.6 mg/dL
- TG (6 h): 50.4 mg/dL
- TP (6 h): 5.4 g/dL
- gamma-GTP (6 h): 1 IU/L
- TERMINAL_BW (9 h): 183.9 g
- APTT (9 h): 22.4 s
- Bas (9 h): 0%
- Eos (9 h): 1%
- Fbg (9 h): 304.8 mg/dL
- Hb (9 h): 12.9 g/dL
- Ht (9 h): 38.9%
- Lym (9 h): 74.8%
- MCH (9 h): 21.8 pg
- MCHC (9 h): 33.2%
- MCV (9 h): 65.6 fL
- Mono (9 h): 2.4%
- Neu (9 h): 20.6%
- PT (9 h): 15.3 s
- Plat (9 h): 114.2 x10_4/uL
- RBC (9 h): 592.2 x10_4/ul
- Ret (9 h): 9%
- WBC (9 h): 83.3 x10_2/uL
- KIDNEY_L (9 h): 0.9 g
- KIDNEY_R (9 h): 0.9 g
- KIDNEY_TOTAL (9 h): 1.7 g
- LIVER (9 h): 7.7 g
- A/G (9 h): 1.2
- ALP (9 h): 1473.8 IU/L
- ALT (9 h): 32.4 IU/L
- AST (9 h): 64.8 IU/L
- BUN (9 h): 10 mg/dL
- CRE (9 h): 0.1 mg/dL
- Ca (9 h): 10.4 mg/dL
- Cl (9 h): 106.6 meq/L
- DBIL (9 h): 0 mg/dL
- GLC (9 h): 186 mg/dL
- IP (9 h): 9.6 mg/dL
- K (9 h): 4.2 meq/L
- LDH (9 h): 223.2 IU/L
- Na (9 h): 141 meq/L
- PL (9 h): 145 mg/dL
- RALB (9 h): 3.1 g/dL
- TBIL (9 h): 0.012 mg/dL
- TC (9 h): 85.2 mg/dL
- TG (9 h): 47 mg/dL
- TP (9 h): 5.6 g/dL
- gamma-GTP (9 h): 1 IU/L
- TERMINAL_BW (24 h): 199.9 g
- APTT (24 h): 20.9 s
- Bas (24 h): 0%
- Eos (24 h): 1%
- Fbg (24 h): 309 mg/dL
- Hb (24 h): 13.4 g/dL
- Ht (24 h): 39.3%
- Lym (24 h): 81.6%
- MCH (24 h): 21.7 pg
- MCHC (24 h): 34.1%
- MCV (24 h): 63.9 fL
- Mono (24 h): 2%
- Neu (24 h): 14.4%
- PT (24 h): 15.4 s
- Plat (24 h): 120.4 x10_4/uL
- RBC (24 h): 616.2 x10_4/ul
- Ret (24 h): 7.9%
- WBC (24 h): 54.7 x10_2/uL
- KIDNEY_L (24 h): 0.9 g
- KIDNEY_R (24 h): 0.9 g
- KIDNEY_TOTAL (24 h): 1.8 g
- LIVER (24 h): 9.2 g
- A/G (24 h): 1.3
- ALP (24 h): 1643.2 IU/L
- ALT (24 h): 40.2 IU/L
- AST (24 h): 71.4 IU/L
- BUN (24 h): 15.4 mg/dL
- CRE (24 h): 0.1 mg/dL
- Ca (24 h): 10.8 mg/dL
- Cl (24 h): 106.8 meq/L
- DBIL (24 h): 0.002 mg/dL
- GLC (24 h): 190.6 mg/dL
- IP (24 h): 7.6 mg/dL
- K (24 h): 4.1 meq/L
- LDH (24 h): 203.8 IU/L
- Na (24 h): 143 meq/L
- PL (24 h): 160.2 mg/dL
- RALB (24 h): 3.1 g/dL
- TBIL (24 h): 0.006 mg/dL
- TC (24 h): 90 mg/dL
- TG (24 h): 82.6 mg/dL
- TP (24 h): 5.6 g/dL
- gamma-GTP (24 h): 1 IU/L
